# Measurements: US10016425B2, “Anti-ulcerative colitis compound” (KING SAUD UNIVERSITY, priority 2016, dated 2018)
# How the values were obtained:
# [1] = test system: Liver and Kidney Functions; experiment: Effect on liver and kidney functions in rats after 15 days oral dosing; assay type: in vivo, male Wistar rats; design: ALT / AST: dose or concentration left out as unconfirmed; settings: oral 15 days; for Blood Urea / ALT / AST / Creatinine: mean ± SD, n = 10; for hepatotoxic manifestation / nephrotoxic manifestations: no significant difference to control at 0.05 level; for ALT / AST / Creatinine: serum
# Protocol: (§1) The anti-ulcerative colitis compounds were tested on Swiss albino mice of both genders (26-30 g), as well as male Wistar rats (180-200 g). The animals were housed in standard polypropylene cages with wire mesh tops and maintained under standard conditions (temperature of 23±1.0° C., humidity of 55±10%, 12 h light/12 h dark cycle). They were fed with a standard pellet diet with water ad libitum and were allowed to adapt to the laboratory environment for one week before experimentation.
# The male Wister rats were divided into two equal groups each having ten rats. […] After the examination period, 6 hours after the last dose blood samples were collected from the orbital plexus of rats, samples were left to clot at room temperature for 30 minutes and then centrifuged at 1000 rpm for 20 minutes. The collected sera were used for determination of the activity of both […] (AST) and alanine aminotransferase (ALT) as liver markers. Additionally, levels of blood urea and serum creatinine were also estimated as kidney markers.
# [2] = test system: Acetic Acid-induced Colitis; experiment: Acetic acid-induced colitis in rats (prophylactic effect, macroscopic scoring); assay type: in vivo, male Wistar rats; settings: for percent protection of control colitis: 50 mg/kg orally; for anti-ulcerative colitis activity (in words): administrated orally to rats, 50 mg/kg
# Protocol: as §1
# In order to examine the effect of the treatment compounds on ulcerative colitis, five groups of six rats were used. Two groups received compounds 5 and 6 at a dose of 50 mg/kg of body weight. Three other groups of animals were used, with two receiving water orally and the third receiving dexamesathone at a dose of 0.1 mg/kg orally, serving as control, control colitis and standard groups, respectively. All medications were administrated for five successive days. Two hour after the last dose, ulcerative colitis was induced by slowly infusion of 2 mL (4%, v/v) of acetic acid in saline into the colon through a catheter. Two days after the induction of colitis, the animals were sacrificed and colonic segments (8 cm in length and 3 cm proximal to the anus) were excised, opened and were used for macroscopic scoring.
# To assess colonic lesions, the colon specimens were weighted and the wet weight/length ratio was calculated for all of the animals. The specimens were examined under a dissecting microscope and mucosal lesions were quantified by the scoring system (0-5): 0=no damage, 1=local edema and inflammation without ulcers; 2=one ulcer without inflammation; 3=one to two ulcers with inflammation and lesion diameter <1 cm; 4=more than two ulcers with lesion diameter 1-2 cm; 5=severe ulceration with lesion diameter >2 cm.
# Ulcer area was measured using a plane glass square. Each cell on the glass square was 1 mm^2 in area and the number of cells were counted and the ulcer area was determined for each colon. Ulcer index was measured by summing the lesion score and the ulcer area for each colon specimen. All values were expressed as mean±S.D. Statistical analysis was performed using SPSS 10. Statistical significance of differences between two means was assessed by unpaired student's T-test. Differences at p<0.05, 0.01, and 0.001 were considered statistically significant.
# Swiss albino mice = settings: mouse, in vivo
# Protocol: as §1
# In order to determine the oral median lethal dose (LD50) of the anti-ulcerative colitis compound, the Swiss albino mice (in groups of six), received one of 50, 100, 500, or 1000 mg/kg doses of the target compound. Control animals received the pharmaceutical vehicle only and were kept under the same conditions. Signs of acute toxicity and the number of deaths per dose within 24 hours were recorded.
Structure (SMILES),Blood Urea [1] [mg/dL],hepatotoxic manifestation [1],nephrotoxic manifestations [1],ALT [1] [U/l],AST [1] [U/l],Creatinine [1] [mg/dL],percent protection of control colitis [2] [%],anti-ulcerative colitis activity (in words) [2],behavioral changes and/or mortality in mice (Swiss albino mice),percent protection ([2]; 0.1 mg/kg orally) [%]
"COc1cc(/C=N/n2c(-c3ccc(C)cc3)nc3ccccc3c2=O)ccc1O [Compound 5, 3-[(4-hydroxy-3-methoxy-benzylidene)-amino]-2-p-tolyl-3H-quinazolin-4-one]",65.50 ± 1.9,do not result in hepatotoxic manifestation,no apparent nephrotoxic manifestations,38.67 ± 0.22,63.23 ± 0.39,0.85 ± 0.02,51.2,potent anti-ulcerative colitis activity,did not produce any behavioral changes and/or mortality,–
"COc1cc(/C=N/n2c(-c3ccc(C)cc3)nc3ccccc3c2=O)cc(OC)c1OC [Compound 6, 2-p-tolyl-3-[3,4,5-trimethoxy-benzylidene-amino]-3H-quinazolin-4-one]",65.50 ± 1.9,do not result in hepatotoxic manifestation,no apparent nephrotoxic manifestations,38.67 ± 0.22,63.23 ± 0.39,0.85 ± 0.02,61.8,potent anti-ulcerative colitis activity,did not produce any behavioral changes and/or mortality,–
"C[C@@H]1C[C@H]2[C@@H]3CCC4=CC(=O)C=C[C@]4(C)[C@@]3(F)[C@@H](O)C[C@]2(C)[C@@]1(O)C(=O)CO [Dexamethasone, reference compound]",–,–,–,–,–,–,–,–,–,72.2
